From US20060178293A1, “Cardiotonic polypeptides” (priority 2003, published 2006) come the findings set out here.

The assay concerns isolated cardiomyocytes derived from adult rats. Conditions: electrically stimulated; 0.35 μg/ml (FIG. 5).

Each structure is given as a SMILES string.

For the compound `NCCc1ccc(O)c(O)c1` [inotropin], the “mechanical contractility (cell length changes), optically monitored” value is “obvious increase in contractility”.
